In ChEMBL document CHEMBL3102700, “Truncated norzoanthamine exhibiting similar collagen protection activity, toward a promising anti-osteoporotic drug” (Bioorg Med Chem Lett, 2014):
Calls of active or inactive are those of the source. The calls are words filed in the database; no cut-off is given here.

What was measured:
[1] = Collagen protection activity of the compound assessed as residual collagen level after 180 mins by Sirius red colorimetric assay
[2] = Collagen protection activity of the compound assessed as residual collagen level at 10 uM after 180 mins by Sirius red colorimetric assay
[3] = Collagen protection activity of the compound assessed as residual collagen level at 1 uM after 180 mins by Sirius red colorimetric assay
[4] = Collagen protection activity of the compound assessed as residual collagen level at 0.1 uM after 180 mins by Sirius red colorimetric assay

Structure (SMILES)	Activity [1]	Activity [2] [%]	Activity [3] [%]	Activity [4] [%]
C[C@H]1C[C@@H]2CN3[C@](CC[C@@]4(C)[C@]5(C)CCC[C@]34OC(=O)C5)(C1)O2	Dose-dependent effect	47.8	46.6	40
CC1=CC(=O)[C@H]2CC(=O)[C@H]3[C@@](C)(C[C@@]45OC(=O)C[C@]3(C)[C@]4(C)CC[C@]34C[C@@H](C)C[C@H](CN35)O4)[C@@H]2C1	–	45	40.4	–
COC(=O)C[C@@]1(C)[C@H]2C(=O)C[C@@H]3C(=O)C=C(C)C[C@H]3[C@]2(C)C=C2N3C[C@H]4C[C@H](C)C[C@]3(CC[C@]21C)O4	inactive	–	–	–
CC1=CC(=O)CCC1	inactive	–	–	–
